According to patent publication US20120101110A1, “Diaza-spiro[5.5]undecanes” (priority 2010, published 2012):
pKi: −log10 of the molar value.

Tests used:
human orexin 2 receptors = target: T1, human orexin 2 receptors (Homo sapiens, UniProt O43614); assay: Calcium accumulation in cells (FLIPR), hOx2R; assay type: cell-based; conditions: cells expressing human orexin 2 receptor; inhibition of orexin A-induced calcium accumulation; Cheng and Prusoff correction
T1 sequence (O43614 1-444): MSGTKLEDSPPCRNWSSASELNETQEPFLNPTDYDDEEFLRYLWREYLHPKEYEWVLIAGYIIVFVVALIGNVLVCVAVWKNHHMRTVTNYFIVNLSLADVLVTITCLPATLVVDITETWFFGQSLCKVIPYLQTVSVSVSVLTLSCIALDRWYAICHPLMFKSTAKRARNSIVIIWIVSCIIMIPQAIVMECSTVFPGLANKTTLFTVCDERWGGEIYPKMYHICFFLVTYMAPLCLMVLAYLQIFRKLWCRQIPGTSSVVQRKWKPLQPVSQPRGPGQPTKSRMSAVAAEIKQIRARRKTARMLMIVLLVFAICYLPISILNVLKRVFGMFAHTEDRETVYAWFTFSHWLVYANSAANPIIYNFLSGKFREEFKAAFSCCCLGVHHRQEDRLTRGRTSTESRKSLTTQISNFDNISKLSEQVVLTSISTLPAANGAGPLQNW
Procedure: (§1) Cells expressing human orexin 1 or human orexin 2 receptors, were seeded at 8,000 cells/well in 384 well black-walled clear bottom, poly-D-lysine coated plates. After 24 h, the medium was removed and cells were washed once with phosphate buffered saline and serum-deprived overnight in assay buffer (130 mM NaCl, 5.4 mM KCl, 1.8 mM CaCl2, 0.8 mM MgSO4, 0.9 mM NaH2PO4, 25 mM glucose, 20 mM HEPES, pH 7.4) containing bovine serum albumin (1% w/v).
On the day of the experiment, the cells seeded in black plates were treated with assay buffer containing the Ca^2+sensitive fluorescent dye Fluo-4-AM (2 μM), and probenecid (0.1 mM). After 1 h plates were washed twice with, and resuspended in, assay buffer containing probenecid (0.1 mM) using a multi plate washer. […] Fluorescence measurements were then continued every 1 S for 120 S followed by every 4 S for 240 S.
The measurements were typically made in two sequences:
(§2) Compounds of formula I were tested usually in a concentration range from 10^−9 M to 10^−5 M. In the second round, performed one hour later (to allow for equilibration), Orexin A was tested either in the absence (calibration curves, Orexin A agonist controls) or in the presence of compounds of formula I to determine antagonism.

human orexin 1 receptors = target: T2, human orexin 1 receptors (Homo sapiens, UniProt O43613); assay: Calcium accumulation in cells (FLIPR), hOx1R; conditions: for inhibition at 10 µM: read-out: FLIPR hOx1R % inhibition value
T2 sequence (O43613 1-425): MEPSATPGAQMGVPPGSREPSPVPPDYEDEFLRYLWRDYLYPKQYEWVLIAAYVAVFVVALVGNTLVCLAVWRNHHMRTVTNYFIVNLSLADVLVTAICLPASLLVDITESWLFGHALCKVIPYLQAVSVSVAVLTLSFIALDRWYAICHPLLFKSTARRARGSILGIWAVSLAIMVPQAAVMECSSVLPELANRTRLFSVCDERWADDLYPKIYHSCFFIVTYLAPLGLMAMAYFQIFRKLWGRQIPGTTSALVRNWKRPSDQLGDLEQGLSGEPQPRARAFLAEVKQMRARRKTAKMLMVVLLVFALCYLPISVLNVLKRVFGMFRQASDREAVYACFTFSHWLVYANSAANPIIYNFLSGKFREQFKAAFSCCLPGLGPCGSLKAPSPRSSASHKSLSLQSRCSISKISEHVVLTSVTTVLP
Procedure: as §1
On the day of the experiment, the cells seeded in black plates were treated with assay buffer containing the Ca^2+sensitive fluorescent dye Fluo-4-AM (2 μM), and probenecid (0.1 mM). After 1 h plates were washed twice with, and resuspended in, assay buffer containing probenecid (0.1 mM) using a multi plate washer. The plates were placed into a FLIPR II (Fluorometric Imaging Plate Reader, Molecular Devices, Sunnyvale, Calif., USA) and baseline fluorescence (fluorescence light units, FLU) was measured (5 measurements, 2 S each; laser excitation 488 nm at 0.6-1 W, CCD camera exposure 0.4 s) before addition of buffer alone (basal) or containing test compounds (either compound of formula I alone, agonist alone or agonist in the presence of various concentrations of compounds of formula I). Fluorescence measurements were then continued every 1 S for 120 S followed by every 4 S for 240 S.
as §2
Inhibition data is expressed in Table 2 as Ki [μM], converted by the Cheng and Prusoff correction (Ki=IC50/1+(L/EC50)), where IC50 is the 50% inhibition value determined in concentration response inhibition curves, EC50 is the half maximal activation concentration determined for orexin A in concentration response curves and L is the concentration of orexin A used in inhibition experiments performed in with a submaximal concentration of orexin A in the presence of up to 8 increasing concentrations of compound of formula I. Inhibition data is also expressed in Table 2 as % inhibition value measured at a concentration of 10 μM of selected compounds of formula I.

Row | Structure (SMILES) | pKi (human orexin 2 receptors) | inhibition at 10 µM (human orexin 1 receptors) [%] | pKi (human orexin 1 receptors)
1 | COc1cncc(N2CCC3(CCCN(Cc4c[nH]c5ncccc45)C3=O)CC2)n1 [Example 8, 2-((1H-pyrrolo[2,3-b]pyridin-3-yl)methyl)-9-(6-methoxypyrazin-2-yl)-2,9-diazaspiro[5.5]undecan-1-one] | 6.56 | 31 | –
2 | N#Cc1ccc(N2CCC3(CCCC(=O)N3Cc3cccc4[nH]ccc34)CC2)nc1 [Example 14, 6-(1-((1H-indol-4-yl)methyl)-2-oxo-1,9-diazaspiro[5.5]undecan-9-yl)nicotinonitrile] | 6.70 | 13 | –
3 | Cc1ccnc(N2CCC3(CCCC(=O)N3Cc3ccccc3-n3nccn3)CC2)n1 [Example 16, 1-(2-(2H-1,2,3-triazol-2-yl)benzyl)-9-(4-methylpyrimidin-2-yl)-1,9-diazaspiro[5.5]undecan-2-one] | 6.57 | 31 | –
4 | Cc1nnc(N2CCC3(CCCN(Cc4c[nH]c5ccccc45)C3=O)CC2)o1 [Example 17, 2-((1H-indol-3-yl)methyl)-9-(5-methyl-1,3,4-oxadiazol-2-yl)-2,9-diazaspiro[5.5]undecan-1-one] | – | 12 | –
5 | O=C1N(Cc2c[nH]c3ncccc23)CCCC12CCN(c1cncc(Cl)n1)CC2 [Example 18, 2-((1H-pyrrolo[2,3-b]pyridin-3-yl)methyl)-9-(6-chloropyrazin-2-yl)-2,9-diazaspiro[5.5]undecan-1-one] | 6.91 | – | 5.49
6 | Cc1cncc(N2CCC3(CCCN(Cc4c[nH]c5ncccc45)C3=O)CC2)n1 [Example 19, 2-((1H-pyrrolo[2,3-b]pyridin-3-yl)methyl)-9-(6-methylpyrazin-2-yl)-2,9-diazaspiro[5.5]undecan-1-one] | 6.83 | 31 | –
7 | Cc1cc(C)nc(N2CCC3(CCCN(Cc4c(-c5ccccc5)noc4C)C3=O)CC2)n1 [Example 23, 9-(4,6-dimethylpyrimidin-2-yl)-2-((5-methyl-3-phenylisoxazol-4-yl)methyl)-2,9-diazaspiro[5.5]undecan-1-one] | 6.94 | – | 5.54
8 | Cc1ccnc(N2CCC3(CCCN(Cc4ccccc4-n4nccn4)C3=O)CC2)n1 [Example 24, 2-(2-(2H-1,2,3-triazol-2-yl)benzyl)-9-(4-methylpyrimidin-2-yl)-2,9-diazaspiro[5.5]undecan-1-one] | 6.29 | < 10 | –
9 | N#Cc1cccc(N2CCC3(CCCN(Cc4ccccc4-n4nccn4)C3=O)CC2)n1 [Example 26, 6-(2-(2-(2H-1,2,3-triazol-2-yl)benzyl)-1-oxo-2,9-diazaspiro[5.5]undecan-9-yl)picolinonitrile] | – | < 10 | –
10 | N#Cc1ccnc(N2CCC3(CCCN(Cc4ccccc4-n4nccn4)C3=O)CC2)c1 [Example 27, 2-(2-(2-(2H-1,2,3-triazol-2-yl)benzyl)-1-oxo-2,9-diazaspiro[5.5]undecan-9-yl)isonicotinonitrile] | 6.19 | < 10 | –
11 | Cc1ccnc(N2CCC3(CCCN(Cc4cccc(-c5ncccn5)c4)C3=O)CC2)n1 [Example 30, 9-(4-methylpyrimidin-2-yl)-2-(3-(pyrmidin-2-yl)benzyl)-2,9-diazaspiro[5.5]undecan-1-one] | 6.16 | 48 | –
12 | CN(C)c1ccnc(N2CCC3(CCCN(Cc4c[nH]c5ccccc45)C3=O)CC2)n1 [Example 46, 2-((1H-indol-3-yl)methyl)-9-(4-(dimethylamino)pyrimidin-2-yl)-2,9-diazaspiro[5.5]undecan-1-one] | 6.84 | 25 | –
13 | COc1nccc(N2CCC3(CCCN(Cc4c[nH]c5ccccc45)C3=O)CC2)n1 [Example 47, 2-((1H-indol-3-yl)methyl)-9-(2-methoxypyrimidin-4-yl)-2,9-diazaspiro[5.5]undecan-1-one] | 6.20 | 25 | –
14 | O=C1N(Cc2c[nH]c3ccccc23)CCCC12CCN(c1ccnc(Cl)n1)CC2 [Example 48, 2-((1H-indol-3-yl)methyl)-9-(2-chloropyrimidin-4-yl)-2,9-diazaspiro[5.5]undecan-1-one] | 6.82 | – | 5.50
15 | O=C1N(Cc2c[nH]c3ccccc23)CCCC12CCN(c1nccc(C(F)(F)F)n1)CC2 [Example 49, 2-((1H-indol-3-yl)methyl)-9-(4-(trifluoromethyl)pyrimidin-2-yl)-2,9-diazaspiro[5.5]undecan-1-one] | 6.72 | – | 5.66
16 | CC(C)c1ccnc(N2CCC3(CCCN(Cc4c[nH]c5ccccc45)C3=O)CC2)n1 [Example 50, 2-((1H-indol-3-yl)methyl)-9-(4-isopropylpyrimidin-2-yl)-2,9-diazaspiro[5.5]undecan-1-one] | 6.65 | – | 5.73

Row | Structure (SMILES) | pKi (human orexin 2 receptors) | inhibition at 10 µM (human orexin 1 receptors) [%] | pKi (human orexin 1 receptors)
17 | CCOc1ccnc(N2CCC3(CCCN(Cc4c[nH]c5ccccc45)C3=O)CC2)n1 [Example 52, 2-((1H-indol-3-yl)methyl)-9-(4-ethoxypyrimidin-2-yl)-2,9-diazaspiro[5.5]undecan-1-one] | 6.90 | – | 5.98
18 | Cn1cc(CN2CCCC3(CCN(c4cncc(Cl)n4)CC3)C2=O)c2ccccc21 [Example 53, 9-(6-chloropyrazin-2-yl)-2-((1-methyl-1H-indol-3-yl)methyl)-2,9-diazaspiro[5.5]undecan-1-one] | 6.38 | – | 5.56
19 | CCn1cc(CN2CCCC3(CCN(c4nc(C)cc(C)n4)CC3)C2=O)c2ccccc21 [Example 54, 9-(4,6-dimethylpyrimidin-2-yl)-2-((1-ethyl-1H-indol-3-yl)methyl)-2,9-diazaspiro[5.5]undecan-1-one] | 6.83 | – | 5.50
20 | COc1cncc(N2CCC3(CCCC(=O)N3Cc3c[nH]c4ccccc34)CC2)n1 [Example 55, 1-((1H-indol-3-yl)methyl)-9-(6-methoxypyrazin-2-yl)-1,9-diazaspiro[5.5]undecan-2-one] | 6.14 | 40 | –
21 | COc1cncc(N2CCC3(CCCN(Cc4cccc5c4OCCO5)C3=O)CC2)n1 [Example 56, 2-((2,3-dihydrobenzo[b][1,4]dioxin-5-yl)methyl)-9-(6-methoxypyrazin-2-yl)-2,9-diazaspiro[5.5]undecan-1-one] | 6.14 | 35 | –
22 | Cc1cccc(N2CCC3(CCCN(Cc4c[nH]c5ccccc45)C3=O)CC2)c1 [Example 57, 2-((1H-indol-3-yl)methyl)-9-m-tolyl-2,9-diazaspiro[5.5]undecan-1-one] | 6.77 | – | 5.43
23 | COc1cc(N2CCC3(CCCN(Cc4c[nH]c5ccccc45)C3=O)CC2)ccn1 [Example 61, 2-((1H-indol-3-yl)methyl)-9-(2-methoxypyridin-4-yl)-2,9-diazaspiro[5.5]undecan-1-one] | – | – | 5.42
24 | O=C1N(Cc2c[nH]c3ccccc23)CCCC12CCN(c1cccc(O)n1)CC2 [Example 84, 2-((1H-indol-3-yl)methyl)-9-(6-hydroxypyridin-2-yl)-2,9-diazaspiro[5.5]undecan-1-one] | – | 24 | –
25 | Cc1ccnc(N2CCC3(CCCC(=O)N3Cc3ccc(-c4ncccn4)cc3)CC2)n1 [Example 90, 9-(4-methylpyrimidin-2-yl)-1-(4-(pyrimidin-2-yl)benzyl)-1,9-diazaspiro[5.5]undecan-2-one] | – | < 10 | –
26 | Cc1ccnc(N2CCC3(CCCC(=O)N3Cc3cccc(-n4nccn4)c3)CC2)n1 [Example 94, 1-(3-(2H-1,2,3-triazol-2-yl)benzyl)-9-(4-methylpyrimidin-2-yl)-1,9-diazaspiro[5.5]undecan-2-one] | – | 36 | –
27 | Cc1ccnc(N2CCC3(CCCC(=O)N3Cc3nnc(-c4ccccc4)o3)CC2)n1 [Example 95, 9-(4-methylpyrimidin-2-yl)-1-((5-phenyl-1,3,4-oxadiazol-2-yl)methyl)-1,9-diazaspiro[5.5]undecan-2-one] | – | 10 | –
28 | Cc1ccnc(N2CCC3(CCCC(=O)N3Cc3cccc(-c4nc(C)no4)c3)CC2)n1 [Example 97, 1-(3-(3-methyl-1,2,4-oxadiazol-5-yl)benzyl)-9-(4-methylpyrimidin-2-yl)-1,9-diazaspiro[5.5]undecan-2-one] | – | 15 | –
29 | Cc1ccnc(N2CCC3(CCCC(=O)N3Cc3cccc(N4CCCC4)n3)CC2)n1 [Example 98, 9-(4-methylpyrimidin-2-yl)-1-((6-(pyrrolidin-1-yl)pyridin-2-yl)methyl)-1,9-diazaspiro[5.5]undecan-2-one] | – | < 10 | –
30 | Cc1cc(N2CCC3(CCCN(Cc4c[nH]c5ccccc45)C3=O)CC2)ccn1 [Example 100, 2-((1H-indol-3-yl)methyl)-9-(2-methylpyridin-4-yl)-2,9-diazaspiro[5.5]undecan-1-one] | – | < 10 | –
31 | Cc1ccnc(N2CCC3(CCCC(=O)N3Cc3cc(C#N)ccc3F)CC2)n1 [Example 101, 4-fluoro-3-((9-(4-methylpyrimidin-2-yl)-2-oxo-1,9-diazaspiro[5.5]undecan-1-yl)methyl)benzonitrile] | – | < 10 | –
